Assay results as given in US20050197331A1, “Novel anti-inflammatory and analgesic heterocyclic amidines that inhibit nitrogen oxide (NO) production” (ROTTAPHARM SPA, priority 2004, published 2005).
Where a name gives a salt, the structure may show the parent alone. Read-outs that look alike come from different tables or passages of the source.

Columns and labels:
[1] = test system: PGE2; test: Inhibition of PGE2 formation in rabbit articular chondrocytes stimulated with IL-1β (RIA); format: cell-based
Experimental: (§1) a) The inhibitory activity on the formation of NO measured as NO2^− (nitrite) and PGE2 was studied in vitro on culture media of rabbit articular chondrocytes stimulated with the cytokine IL-1β (1 ng/ml) for 48 hours. For the preparation of the chondrocytes, the method described by Berenbaum et al. [FEBS Letters 340, 51-55 (1994)] was followed. Briefly, fragments of cartilage removed aseptically from the articular heads of rabbit shoulder, hip and knee were finely ground and digested at 37° C. in hyaluronidase, trypsin and collagenase solutions, giving, after filtration through sterile gauze and centrifugation at 600×g and suitable dilution with 10% DMEM-FCS 10%, a concentration per well of about 1×10^5 cells. The cells were maintained under these conditions until confluent (about 15 days), the medium being replaced every 3 days. At this point, the test products dissolved in the medium were added to each sample and, after 20 minutes, 350 μl of IL-1β were added, to give a final concentration of 1 ng/ml. The stimulation lasted 48 hours at 37° C. (incubation in air/7% CO2). A nitrite assay was subsequently performed on the cell supernatant, as described by Green et al. [Anal. Biochem. 126, 131-138 (1982)], and of PGE2 by RIA assay. The results obtained are shown in Table 3, in which is given, for a number of the compounds that are the subject of the invention and that are already illustrated in Table 1, the IC50, i.e. the concentration (micromolar) of antagonist capable of inhibiting the formation of nitrites and PGE2 by 50% relative to the control group, i.e. relative to the cells stimulated with IL-1β but without addition of antagonists.

[2] = test system: formation of NO measured as NO2^− (nitrite); test: Inhibition of NO (nitrite) formation in rabbit articular chondrocytes stimulated with IL-1β; format: cell-based; conditions: for IC50: Oryctolagus cuniculus, Chondrocyte
Experimental: as §1

[3] = Oryctolagus cuniculus, Chondrocyte, rabbit articular chondrocytes, IL-1β 1 ng/ml, 48 hours, RIA, read-out: Inhibition % IC50 PGE2
[4] = rabbit articular chondrocytes, IL-1β 1 ng/ml, 48 hours, nitrite in supernatant, read-out: Inhibition % IC50 NO
[5] = rabbit articular chondrocytes stimulated with IL-1β
[6] = Oryctolagus cuniculus, Chondrocyte, rabbit articular chondrocytes stimulated with IL-1β, read-out: IC50, formation of PGE2
[7] = rabbit articular chondrocytes, IL-1β 1 ng/ml, 48 hours, RIA

Molecule	melting point [°C]	IC50 [1, 3] [µM]	IC50 [2, 4] [µM]	also measured
COc1ccc(S(N)(=O)=O)cc1-c1nc2cc(NC(C)=N)ccc2s1 (as salt: hydrochloride) [Compound 13, N-[2-(5-aminosulfonyl-2-methoxyphenyl)benzothiazol-5-yl]acetamidine hydrochloride]	244 to 248	–	–	–
CC(=N)Nc1ccc2[nH]c(-c3ccc(F)cc3)nc2c1 (as salt: hydrochloride) [Compound 19, N-[2-(4-fluorophenyl)benzimidazol-5-yl]acetamidine dihydrochloride]	283.7 to 286.3	–	–	–
CC(=N)Nc1ccc2[nH]c(-c3ccccc3)nc2c1 (as salt: hydrochloride) [Compound 21, N-(2-phenyl-3H-benzimidazol-5-yl)acetamidine hydrochloride]	164 to 166	–	–	–
CCCCCc1nc2ccc(NC(C)=N)cc2[nH]1 (as salt: hydrochloride) [Compound 22, N-(2-pentyl-3H-benzimidazol-5-yl)acetamidine dihydrochloride]	276.9 to 278.3	–	–	–
CCCCCc1nc2ccc(NC(C)=N)cc2s1 [Compound 4, N-(2-pentylbenzothiazol-6-yl)acetamidine]	112.6 to 114.7	6.6	6.9	IC50 ([2]; rabbit articular chondrocytes stimulated with IL-1β, read-out: IC50, production of NO): 3 to 8 µM
CC(=N)Nc1ccc2sc(Cc3ccccc3)nc2c1 [Compound 11, N-[2-benzylbenzothiazol-5-yl]acetamidine]	117.9 to 120	7.4	15	–
CC(=N)Nc1ccc2sc(/C=C/c3ccccc3)nc2c1 [Compound 12, N-[2-styrylbenzothiazol-5-yl]acetamidine]	90.8 to 91.8	1.3	88.9	IC50, formation of PGE2 [1, 5]: sub-micromolar; inhibiting the production of NO (in words) [2, 5]: little activity
COc1ccc(S(N)(=O)=O)cc1-c1nc2cc(NC(C)=N)ccc2s1 [Compound 13, N-[2-(5-aminosulfonyl-2-methoxyphenyl)benzothiazol-5-yl]acetamidine hydrochloride]	–	16.2	–	–
CC(=N)Nc1ccc2sc(-c3ccccn3)nc2c1 [Compound 14, N-[2-(2-pyridyl)benzothiazol-5-yl]acetamidine]	187.2 to 188.9	42.5	–	–
CC(=N)Nc1ccc2[nH]c(-c3ccc(F)cc3)nc2c1 [Compound 19, N-[2-(4-fluorophenyl)benzimidazol-5-yl]acetamidine dihydrochloride]	–	0.7	78	IC50 [1, 6]: 0.3 to 0.8 µM; IC50, formation of PGE2 [1, 5]: sub-micromolar; inhibiting the production of NO (in words) [2, 5]: little activity
CC(=N)Nc1ccc2[nH]c(-c3ccc(Cl)cc3)nc2c1 [Compound 20, N-[2-(4-chlorophenyl)benzimidazol-5-yl]acetamidine]	153.6 to 156	0.4	22.8	IC50 [1, 6]: 0.3 to 0.8 µM; IC50, formation of PGE2 [1, 5]: sub-micromolar; inhibiting the production of NO (in words) [2, 5]: little activity
CC(=N)Nc1ccc2[nH]c(-c3ccccc3)nc2c1 [Compound 21, N-(2-phenyl-3H-benzimidazol-5-yl)acetamidine hydrochloride]	–	0.8	84.5	IC50 [1, 6]: 0.3 to 0.8 µM; IC50, formation of PGE2 [1, 5]: sub-micromolar; inhibiting the production of NO (in words) [2, 5]: little activity
CC(=N)Nc1ccc2[nH]c(-c3cccc(C(F)(F)F)c3)nc2c1 [Compound 36, N-[2-(3-trifluoromethylphenyl)benzimidazole-5-yl]acetamidine hydrobromide]	–	–	–	Inhibition % IC50 PGE2 [1, 7]: IN (IN = <25% inhibitory activity at 30 × 10^−6M)
CC(=N)Nc1ccc2[nH]c(-c3ccccc3F)nc2c1 [Compound 38, N-[2-(2-fluorophenyl)benzimidazol-5-yl]acetamidine hydrobromide]	–	–	–	Inhibition % IC50 PGE2 [1, 7]: IN (IN = <25% inhibitory activity at 30 × 10^−6M)
N-[2-phenylbenzothiazol-5-yl]cyclopropylcarboxamidine [Compound 41]	–	–	–	IC50 ([1]; rabbit articular chondrocytes, IL-1β 1 ng/ml, 48 hours, RIA, read-out: Inhibition % IC50 PGE2): 4 µM; Inhibition % IC50 NO ([2]; rabbit articular chondrocytes, IL-1β 1 ng/ml, 48 hours, nitrite in supernatant): IN (IN = <25% inhibitory activity at 30 × 10^−6M)

Continued, in another order:

melting point [°C]	IC50 [1, 3] [µM]	IC50 [2, 4] [µM]	Molecule	also measured
284.3 to 285.4	–	–	CC(=N)Nc1ccc2[nH]c(-c3cccc(C(F)(F)F)c3)nc2c1 (as salt: hydrobromid) [Compound 36, N-[2-(3-trifluoromethylphenyl)benzimidazole-5-yl]acetamidine hydrobromide]	–
266.8 to 269	–	–	CC(=N)Nc1ccc2[nH]c(-c3ccccc3F)nc2c1 (as salt: hydrobromid) [Compound 38, N-[2-(2-fluorophenyl)benzimidazol-5-yl]acetamidine hydrobromide]	–
318 to 322	–	–	CC(=N)Nc1ccc2[nH]c(-c3ccc[nH]3)nc2c1 (as salt: hydrochloride) [Compound 23, N-[2-(pyrrol-2-yl)-3H-benzimidazol-5-yl]acetamidine dihydrochloride]	–
284 to 288	–	–	COC(=O)c1ccc(-c2nc3cc(NC(C)=N)ccc3[nH]2)cc1 (as salt: hydrochloride) [Compound 25, Methyl 4-(5-acetimidoylamino-1H-benzimidazol-2-yl)benzoate hydrochloride]	–
162 to 168	–	–	CC(=N)Nc1ccc2nc(-c3ccccc3)ncc2c1 (as salt: hydrochloride) [Compound 27, N-(2-phenylquinazolin-6-yl)acetamidine dihydrochloride]	–
253.1 to 254.7	–	–	COc1ccccc1-c1nc2cc(NC(C)=N)ccc2n1C (as salt: hydrochloride) [Compound 43, N-[1-methyl-2-(2-methoxyphenyl)benzimidazol-5-yl]acetamidine dihydrochloride]	–
–	31.5	123	CCCCCc1nc2ccc(NC(C)=N)cc2[nH]1 [Compound 22, N-(2-pentyl-3H-benzimidazol-5-yl)acetamidine dihydrochloride]	–
–	2	250	CC(=N)Nc1ccc2[nH]c(-c3ccc[nH]3)nc2c1 [Compound 23, N-[2-(pyrrol-2-yl)-3H-benzimidazol-5-yl]acetamidine dihydrochloride]	–
197 to 199	–	–	Br.CC(=N)Nc1ccc2nc(-c3ccc[nH]3)[nH]c2c1 [Compound 24, N-[2-(pyrrol-2-yl)-3H-benzimidazol-5-yl]acetamidine hydrobromide]	–
–	–	174	COC(=O)c1ccc(-c2nc3cc(NC(C)=N)ccc3[nH]2)cc1 [Compound 25, Methyl 4-(5-acetimidoylamino-1H-benzimidazol-2-yl)benzoate hydrochloride]	Inhibition % IC50 PGE2 [1, 7]: IN (IN = <25% inhibitory activity at 30 × 10^−6M)
271.5 to 274.3	–	–	CC(=N)Nc1ccc2[nH]c(-c3ccc(C(=O)O)cc3)nc2c1 [Compound 26, 4-(5-acetimidoylamino-1H-benzimidazol-2-yl)benzoic acid]	Inhibition % IC50 PGE2 [1, 7]: IN (IN = <25% inhibitory activity at 30 × 10^−6M)
166.7 to 169.1	8.4	–	CC(=N)Nc1ccc2sc(-c3ccc[nH]3)nc2c1 [Compound 40, N-[2-(pyrrol-2-yl)benzothiazol-5-yl]acetamidine]	–
205.6 to 207.1	–	–	COc1ccccc1-c1[nH]c2ccc(NC(C)=N)cc2[n+]1C [Compound 44, N-[1-methyl-2-(2-methoxyphenyl)benzimidazol-6-yl]acetamidine]	–
